Test results published in patent US20130079370A1, “Method for the Inhibition of Deubiquitinating Activity” (priority 2011, published 2013).

What was measured:
Format in all cases: cell-based
[1] = tested on: HTC-116, hTERT-RPE1 and PBMC; experiment: Cytotoxic activity, FMCA method; conditions: 72 h
Method: For the FMCA assay cells were seeded in the drug-prepared 384-well plates using the pipetting robot Precision 2000 (Bio-Tek Instruments Inc., Winooski, Vt.). The plates were incubated for 72 h and then transferred to an integrated HTS SAIGAN Core System consisting of an ORCA robot (Beckman Coulter) with CO2 incubator (Cytomat 2C, Kendro, Sollentuna, Sweden), dispenser module (Multidrop 384, Titertek, Huntsville, Ala.), washer module (ELx 405, Bio-Tek Instruments Inc), delidding station, plate hotels, barcode reader (Beckman Coulter), liquid handler (Biomek 2000, Beckman Coulter) and a multipurpose reader (FLUOstar Optima, BMG Labtech GmbH, Offenburg, Germany) for automated FMCA. Survival index (SI) is defined as the fluorescence of test wells in percentage of controls with blank values subtracted.
HCT-116 cells were treated with increasing concentrations of b-AP15 for 24 h and the levels of apoptosis were determined by measuring the levels of caspase cleaved cytokeratin-18 (CK18) by ELISA assay (FIG. 6a). HCT-116 cells were treated with increasing concentrations of b-AP15 for 48 h). Cell viability was determined by acid-phosphatase activity assay. […] IC50 was determined from log concentration/effect curves in Graph Pad Prism (GraphPad Software Inc. CA, USA) using non-linear regression analysis (four parameter model with variable Hill slope) (FIGS. 6e, 6f). […]

[2] = tested on: proteasome reporter cell line MelJuSo Ub-YFP (UbG76V-YFP); experiment: Ub-YFP proteasome reporter cell line, accumulation of reporter; conditions: Homo sapiens, MEL-JUSO; immunoblotting and flow cytometry; read-out: IC50, dose dependent accumulation of the Ub-YFP reporter
Method: b-AP15 blocks cellular proteasome function, as confirmed by use of a reporter cell line, which expresses ubiquitin tagged to yellow fluorescent protein (UbG76V-YFP) constitutively targeted for proteasomal degradation (12). […] Since inhibition of proteasome function is characterized by defects in ubiquitin turnover (13) colon carcinoma HCT116 cells were treated with b-AP15 and the level of ubiqutin conjugation analyzed by immunoblotting. […] The increase in polyubiquitin is associated with a strong proteotoxic response characterized by induction of HSPA6 (Hsp70B′), HSPA1B and DNAJB1 (Hsp40).
MCF7 cells were maintained in MEM/10% fetal calf serum. HCT-116 p53+/+, p53−/−, Bcl-2+/+, PUMA−/− and BAX−/− cells were maintained in McCoy's 5A modified medium/10% fetal calf serum. The HCT-116 p53+/+, p53−/−, PUMA−/− and BAX−/− were generated as described (36). The HCT-116 Bcl-2+/+ cell line was generated by transfecting parental HCT-116 p53+/+ cells with pCEP4 Bcl-2 (Addgene plasmid 16461) (37) and isolating high expression clones. […]
b-AP15 inhibits degradation of ubiquitin-tagged YFP in a proteasome reporter cell line (FIG. 1a). Levels of ^UbG76V-YFP accumulation were determined by flow cytometry and immunoblotting; immunoblot of ubiquitin conjugation in HCT-116 cells treated with b-AP15 (1 μM) or bortezomib (100 nM) (FIG. 1b). […]

HCT116 cells = conditions: human
Text: These findings indicate that high molecular weight ubiquitin substrate complexes accumulating as a result of DUB inhibition can generate strong cytotoxicity that is insensitive to Bcl-2 over-expression. [table]

## C=CC(=O)N1C/C(=C\c2ccc([N+](=O)[O-])cc2)C(=O)/C(=C/c2ccc([N+](=O)[O-])cc2)C1 [b-AP15, (3E,5E)-3,5-bis[(4-nitrophenyl)methylidene]-1-(prop-2-enoyl)piperidin-4-one]
[1]
  cytotoxic activity, tumor versus normal cell types: more toxic to the colon carcinoma cell line HTC-116 than to immortalized retinal pigment epithelial cells (hTERT-RPE1) and peripheral blood mononuclear cells (PBMC)
[2]
  IC50: 800 nM
HCT116 cells
  Fold induction DNAJB1 (Hsp40B1): 22 fold
  Fold induction HSPA1B: 21 fold
